Values quoted from earlier work in US20080063637A1, “Regulation of oncogenesis by Akt-specific isoforms” (The Trustees of Tufts College, priority 2006, published 2008).

Experiments:
[1] = tested on: corresponding Akt isoforms (phosphorylation by PDK1); details: Barnett et al. 2005
[2] = tested on: LNCap prostate cancer cells; details: Barnett et al. 2005

O=c1[nH]c2ccccc2n1C1CCN(Cc2ccc(-c3nc4cc5nc[nH]c5cc4nc3-c3ccccc3)cc2)CC1 [Akt-I-1,2]
phosphorylation and activation of the corresponding Akt isoforms by PDK1 [1]: blocked
TRAIL-induced apoptosis [2]: promote
